Data: patent US20080195033A1, “Method of Delivery of Therapeutic Metal Ions, Alloys and Salts” (INTERNATIONAL BIO-THERAPEUTIC RESEARCH INC., priority 2004, published 2008)

Key:
[1] = test system: HIVIIIB in CEM-SS cells (p24 antigen); experiment: HIV p24 antigen in culture supernatant by antigen capture assay; assay type: cell-based, HIV-1
Experimental: (§1) In one test performed according to the invention, infection studies were carried out in a Level III facility in vitro using HIV-infected and noninfected cells. To establish infection, a viral dose of MOI 0.5 was added to a culture flask. The supernatants of control and test flasks were tested for the presence of the p24 antigen. Cells were then incubated in the presence and absence of silver ions produced by passing current through a sterile silver electrode present in the culture flask. Current was applied for 0, 1, 5, 10 and 30 minutes after incubation of virus with the cells. Cells were then be maintained in culture for 7 days and the concentration of p24 antigen in the supernatant was determined.
(§2) The cells used for such studies were CEM-SS cultured human lymphoblasts to allow detection and monitoring of HIV-induced synceytium. Cells were grown in enriched RPMI medium (20% fetal calf serum; FCS) and maintained in a 5% CO2 enriched tissue culture incubator at 37 degrees Celsius. Infection was conducted at a Multiplicity Dose of 0.5 using HIVIIIB prepared from previously infected CEM-SS stock suspensions.
(§3) In this test performed according to the invention, a silver catheter was introduced by drill into the tissue culture flask, sealed and the flask was then gas-sterilized. Silver ions were generated by connecting the silver electrode to a purpose-built device designed by one of the investigators (RE) powered by a 9 volt battery and designed to generate a steady current of 1.0 milliamp.
(§4) Cell viability was determined using trypan blue dye exclusion. The HIV p24 antigen concentrations in the culture supernatants were determined using an antigen capture assay.
(§5) Each experiment was performed in triplicate and repeated three times. Differences between cells exposed and unexposed to silver ions were compared by analysis of variance.

[2] = test system: CEM-SS infected with HIVIIIB; experiment: Cell viability of HIV-infected CEM-SS cells by trypan blue dye exclusion; assay type: cell-based, HIV-1; conditions: 1.0 mA; for Cell Viability, HIV-Infected Cells: 7 days post exposure
Experimental: as §1, §2, §3, §4, §5

Question: Which “Change in p24 antigen (in words)” value ([1]; after 10 minutes of 1.0 mA current flow) does the source give for silver ions here?
Answer: The value was “decline”.

Question: What about the “Decline in the concentration of p24 antigen in HIV-exposed cultures” value ([1]; over thirty minutes, 1.0 mA, p<0.05) of the same substance?
Answer: The value was 56%.

Question: And the “Change in p24 concentration (in words)” value ([1]; silver ion incubation for five minutes)?
Answer: Its value is “initial increase”.

Question: What about the “Increase in cell viability of infected cells compared to similar cells not subjected to the silver ion treatment” value ([2]; 10 minutes of silver ion exposure) of the same substance?
Answer: Its value is “greater than 25%”.

Question: And the “Cell Viability, HIV-Infected Cells” value ([2]; five minute treatment)?
Answer: The value was 45% alive.

Question: What about the “Cell Viability, HIV-Infected Cells” value ([2]; one minute treatment) of the same substance?
Answer: Its value is 37% alive.

Question: And the “Cell Viability, HIV-Infected Cells” value ([2]; one minute treatment, listed as Silver Ions)?
Answer: The value was 37%.

Question: What about the “Cell Viability, HIV-Infected Cells” value ([2]; ten minute treatment) of the same substance?
Answer: Its value is 54% alive.

Question: What about the “Cell Viability, HIV-Infected Cells” value ([2]; ten minute treatment, listed as Silver Ions) of the same substance?
Answer: Its value is 54%.

Question: And the “Cell Viability, HIV-Infected Cells” value ([2]; thirty minute treatment)?
Answer: The value was 28% alive.
